IC50 data for one molecule are collected here from US11192900B2, “Substituted 1,6-dihydropyridinones and 1,2-dihydroisoquinolinones as bet inhibitors” (NUVATION BIO INC., priority 2018, dated 2021).

The subject of experiment [1] is 22Rv1 human prostate carcinoma cell line. In words: Cell viability assay (resazurin). It counts as cell-based. Conditions: 22Rv1, resazurin, 72 hrs. The procedure: (§1) The effects of test compounds were also studied in the 22Rv1 human prostate carcinoma and MDA-MB-231 human breast adenocarcinoma cell lines. The cells were harvested during the logarithmic growth period and counted. Cells were seeded at a count of 3000 cells (22Rv1) or 5000 cells (MDA-MB-231) per well/100 μl in a 96-well plate. After seeding, cells were incubated at 37° C., 5% CO2 for 24 hr. Cells were treated with test compounds at 8 concentrations within a desired concentration range (e.g. 5 nM-10 μM) for generation of dose response curves by preparing serial dilutions of the test compound in DMSO which were further diluted with culture medium and then added to each well. The plate was further incubated for another 72 hrs (22Rv1) or 96 hrs (MDA-MB-231) in humidified incubator at 37° C. and 5% CO2. The assay was terminated by addition of resazurin (# R7017, Sigma). The plate was incubated for 4 hr at 37° C., 5% CO2 and fluorescence was measured using excitation and emission wavelengths of 535 and 590 nm, respectively. Cell viability data were plotted using GraphPad Prism (GraphPad Software, Inc., San Diego, Calif.). In addition, a nonlinear regression model with a sigmoidal dose response and variable slope within GraphPad Prism was used to calculate the IC50 value of individual test compounds.

Experiment [2] deals with MDA-MB-231 human breast adenocarcinoma cell line. In words: Cell viability assay (resazurin). In kind it is cell-based. The settings on record: MDA-MB-231, resazurin, 96 hrs. The protocol:
as §1
Background: Alamar Blue is a resazurin reagent that responds to reducing activity.

What is called IC50 is the point on the concentration scale where inhibition reaches its midpoint. The low end stands for inhibition by little substance, the high end for a need for much substance.

On to `C=CS(=O)(=O)Nc1ccc(Oc2ccc(F)cc2F)c(-c2cc(NC)c(=O)n(C)c2)c1` [Compound 3, N-(4-(2,4-difluorophenoxy)-3-(1-methyl-5-(methylamino)-6-oxo-1,6-dihydropyridin-3-yl)phenyl)ethenesulfonamide], for which the IC50 was found to be 58 nM in experiment [1] and 82 nM in experiment [2].
